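Step 1: Grow cells in 96-well plates. Step 2: Expose to compound for 48 hours at 5 concentrations. Step 3: Interpolate endpoints linearly; if unreached, use highest concentration. TGI is the concentration that stops growth completely.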
Key:
Experiment in all cases: NCI tumour cell line growth inhibition, 48 h
786-0 renal = tested on: 786-0 renal
A498 renal = tested on: A498 renal
A549 NSCLC = tested on: A549 NSCLC
ACHN renal = tested on: ACHN renal
CAKI-1 renal = tested on: CAKI-1 renal
CCRF-CEM leukemia = tested on: CCRF-CEM leukemia
COLO 205 colon = tested on: COLO 205 colon
DMS 114 small cell lung = tested on: DMS 114 small cell lung
DMS 273 small cell lung = tested on: DMS 273 small cell lung
EKVX NSCLC = tested on: EKVX NSCLC
HCC-2998 colon = tested on: HCC-2998 colon
HCT-116 colon = tested on: HCT-116 colon
HCT-15 colon = tested on: HCT-15 colon
HL-60(TB) leukemia = tested on: HL-60(TB) leukemia
HOP-18 NSCLC = tested on: HOP-18 NSCLC
HOP-92 NSCLC = tested on: HOP-92 NSCLC
HT29 colon = tested on: HT29 colon
IGROV1 ovarian = tested on: IGROV1 ovarian
K-562 leukemia = tested on: K-562 leukemia
KM12 colon = tested on: KM12 colon
KM20L2 colon = tested on: KM20L2 colon
LXFL 529 NSCLC = tested on: LXFL 529 NSCLC
M14 melanoma = tested on: M14 melanoma
M19-MEL melanoma = tested on: M19-MEL melanoma
MALME-3M melanoma = tested on: MALME-3M melanoma
MOLT-4 leukemia = tested on: MOLT-4 leukemia
NCI-H226 lung = tested on: NCI-H226 lung
NCI-H23 lung = tested on: NCI-H23 lung
NCI-H460 lung = tested on: NCI-H460 lung
NCI-H522 lung = tested on: NCI-H522 lung
OVCAR-3 ovarian = tested on: OVCAR-3 ovarian
OVCAR-4 ovarian = tested on: OVCAR-4 ovarian
OVCAR-8 ovarian = tested on: OVCAR-8 ovarian
RXF 393 renal = tested on: RXF 393 renal
SF-268 CNS = tested on: SF-268 CNS
SK-MEL-2 melanoma = tested on: SK-MEL-2 melanoma
SK-MEL-28 melanoma = tested on: SK-MEL-28 melanoma
SK-MEL-5 melanoma = tested on: SK-MEL-5 melanoma
SN12C renal = tested on: SN12C renal
SNB-19 CNS = tested on: SNB-19 CNS
SNB-75 CNS = tested on: SNB-75 CNS
SNB-78 CNS = tested on: SNB-78 CNS
SR leukemia = tested on: SR leukemia
SW-620 colon = tested on: SW-620 colon
TK-10 renal = tested on: TK-10 renal
U251 CNS = tested on: U251 CNS
UACC-257 melanoma = tested on: UACC-257 melanoma
UACC-62 melanoma = tested on: UACC-62 melanoma
UO-31 renal = tested on: UO-31 renal
XF 498 CNS = tested on: XF 498 CNS
DLD-1 colon = tested on: DLD-1 colon
HOP-62 NSCLC = tested on: HOP-62 NSCLC
LOX IMVI melanoma = tested on: LOX IMVI melanoma
OVCAR-5 ovarian = tested on: OVCAR-5 ovarian
RPMI-8226 leukemia = tested on: RPMI-8226 leukemia
SF-295 CNS = tested on: SF-295 CNS
SF-539 CNS = tested on: SF-539 CNS
SK-OV-3 ovarian = tested on: SK-OV-3 ovarian

## Cc1cc(OCC(O)CO)ccc1-c1ccccc1 (centres undefined)
786-0 renal
  TGI: > 100 µM
A498 renal
  TGI: 80.4 µM
A549 NSCLC
  TGI: > 100 µM
ACHN renal
  TGI: > 100 µM
CAKI-1 renal
  TGI: > 100 µM
CCRF-CEM leukemia
  TGI: > 100 µM
COLO 205 colon
  TGI: > 100 µM
DMS 114 small cell lung
  TGI: > 100 µM
DMS 273 small cell lung
  TGI: > 100 µM
EKVX NSCLC
  TGI: > 100 µM
HCC-2998 colon
  TGI: > 100 µM
HCT-116 colon
  TGI: > 100 µM
HCT-15 colon
  TGI: > 100 µM
HL-60(TB) leukemia
  TGI: > 100 µM
HOP-18 NSCLC
  TGI: > 100 µM
HOP-92 NSCLC
  TGI: > 100 µM
HT29 colon
  TGI: > 100 µM
IGROV1 ovarian
  TGI: > 100 µM
K-562 leukemia
  TGI: > 100 µM
KM12 colon
  TGI: > 100 µM
KM20L2 colon
  TGI: > 100 µM
LXFL 529 NSCLC
  TGI: > 100 µM
M14 melanoma
  TGI: > 100 µM
M19-MEL melanoma
  TGI: > 100 µM
MALME-3M melanoma
  TGI: > 100 µM
MOLT-4 leukemia
  TGI: > 100 µM
NCI-H226 lung
  TGI: > 100 µM
NCI-H23 lung
  TGI: > 100 µM
NCI-H460 lung
  TGI: > 100 µM
NCI-H522 lung
  TGI: > 100 µM
OVCAR-3 ovarian
  TGI: > 100 µM
OVCAR-4 ovarian
  TGI: > 100 µM
OVCAR-8 ovarian
  TGI: > 100 µM
RXF 393 renal
  TGI: 87.1 µM
SF-268 CNS
  TGI: > 100 µM
SK-MEL-2 melanoma
  TGI: > 100 µM
SK-MEL-28 melanoma
  TGI: > 100 µM
SK-MEL-5 melanoma
  TGI: > 100 µM
SN12C renal
  TGI: > 100 µM
SNB-19 CNS
  TGI: > 100 µM
SNB-75 CNS
  TGI: > 100 µM
SNB-78 CNS
  TGI: > 100 µM
SR leukemia
  TGI: > 100 µM
SW-620 colon
  TGI: 23.7 µM
TK-10 renal
  TGI: > 100 µM
U251 CNS
  TGI: > 100 µM
UACC-257 melanoma
  TGI: > 100 µM
UACC-62 melanoma
  TGI: > 100 µM
UO-31 renal
  TGI: > 100 µM
XF 498 CNS
  TGI: > 100 µM

## Nc1ncnc2c1ncn2C1OC(CSCc2ccc(Cl)cc2)C(O)C1O (centres undefined)
786-0 renal
  TGI: > 100 µM
A498 renal
  TGI: 96 µM
A549 NSCLC
  TGI: > 100 µM
ACHN renal
  TGI: > 100 µM
CAKI-1 renal
  TGI: 54 µM
CCRF-CEM leukemia
  TGI: > 100 µM
COLO 205 colon
  TGI: > 100 µM
DLD-1 colon
  TGI: > 100 µM
DMS 114 small cell lung
  TGI: 59.7 µM
DMS 273 small cell lung
  TGI: 84.7 µM
EKVX NSCLC
  TGI: > 100 µM
HCC-2998 colon
  TGI: > 100 µM
HCT-116 colon
  TGI: 61.4 µM
HCT-15 colon
  TGI: > 100 µM
HL-60(TB) leukemia
  TGI: 62.2 µM
HOP-18 NSCLC
  TGI: > 100 µM
HOP-62 NSCLC
  TGI: 64.3 µM
HOP-92 NSCLC
  TGI: 32.3 µM
HT29 colon
  TGI: > 100 µM
IGROV1 ovarian
  TGI: > 100 µM
K-562 leukemia
  TGI: > 100 µM
KM12 colon
  TGI: 77.4 µM
KM20L2 colon
  TGI: > 100 µM
LOX IMVI melanoma
  TGI: > 100 µM
LXFL 529 NSCLC
  TGI: 48.3 µM
M14 melanoma
  TGI: 36.7 µM
M19-MEL melanoma
  TGI: > 100 µM
MALME-3M melanoma
  TGI: > 100 µM
MOLT-4 leukemia
  TGI: 46 µM
NCI-H23 lung
  TGI: 71.5 µM
NCI-H460 lung
  TGI: > 100 µM
OVCAR-3 ovarian
  TGI: > 100 µM
OVCAR-4 ovarian
  TGI: > 100 µM
OVCAR-5 ovarian
  TGI: > 100 µM
OVCAR-8 ovarian
  TGI: > 100 µM
RPMI-8226 leukemia
  TGI: 67.3 µM
RXF 393 renal
  TGI: 73.8 µM
SF-268 CNS
  TGI: > 100 µM
SF-295 CNS
  TGI: > 100 µM
SF-539 CNS
  TGI: > 100 µM
SK-MEL-2 melanoma
  TGI: 68.7 µM
SK-MEL-5 melanoma
  TGI: 90.9 µM
SK-OV-3 ovarian
  TGI: > 100 µM
SN12C renal
  TGI: > 100 µM
SNB-19 CNS
  TGI: > 100 µM
SNB-75 CNS
  TGI: 58.5 µM
SNB-78 CNS
  TGI: > 100 µM
SW-620 colon
  TGI: > 100 µM
TK-10 renal
  TGI: > 100 µM
U251 CNS
  TGI: > 100 µM
UACC-257 melanoma
  TGI: > 100 µM
UACC-62 melanoma
  TGI: > 100 µM
UO-31 renal
  TGI: 56 µM
XF 498 CNS
  TGI: 85.9 µM
